Experimental data published in PMC7221086, “Trefoil factors share a lectin activity that defines their role in mucus” (Nature Communications, 2020).
Positions count from the first letter of the chain named. Where no end group is shown, it is not given here.

Assays:
pMucin = assay: Mucin agglutination assay; format: biochemical, porcine; conditions: pMucin 0.02% w/v, 405 nm, 25 °C
Experimental: Mucin agglutination assays were performed at 25 °C on an EnVision 2105 Multimode Plate Reader (PerkinElmer) to monitor transmission at 405 nm over time. The assay was performed in a 96-well plate (Corning, polystyrene flat bottom clear) with 50 µl per well. pMucin concentration was kept consistent at 0.02% w/v and TFF concentration varied (0, 1, 2, 4, 8, 16 or 32 µM). The resulting curves were normalised to percent decrease in signal, averaged over three replicates and plotted using Prism 8 (GraphPad).

[1] = molecular target: reduced and alkylated pMucin; assay: ELISA; conditions: read off a plot
TFF2 (human TFF2) = molecular target: T1, TFF2 (human TFF2) (Homo sapiens, UniProt Q03403, N38Q); assay: Isothermal titration calorimetry of glycans against TFF2; format: binding; conditions: ITC, pH 7.4, 25 °C; TFF2
T1 construct: with an N-terminal gp67 signal peptide and a C-terminal His10-tag; gp67 signal peptide (N, cleaved yes); made in house; host or cells: Sf21 insect cells (baculovirus), secreted
T1 sequence (Q03403 24-129 N38Q): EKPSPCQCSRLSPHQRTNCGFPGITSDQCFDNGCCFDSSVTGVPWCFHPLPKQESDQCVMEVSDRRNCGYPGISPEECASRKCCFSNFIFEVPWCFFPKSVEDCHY
Experimental: (§1) All TFF and ligand stock solutions were prepared in the same buffer (50 mM HEPES, 50 mM NaCl, pH 7.4) and filtered (0.22 µm) just prior to titration. All control and non-binding ligand experiments were performed as 12 × 3.18 µl injections. For experiments with GlcNAc-α-1,4-Gal (Carbosynth), 25 × 1.58 µl injections were used. All runs were performed at 25 °C in a MicroCal iTC200 (Malvern).
(§2) Supplementary Table 2: Parameters used for ITC and thermodynamic terms determined for
(§3) GlcNAc-α-1,4-Gal binding to the TFFs. Data are presented as mean values ±SD for three
(§4) Protein GlcNAc-α- T n Kd ΔH ΔS -TΔS ΔG
(§5) (30 µM) 1,4-Gal (µM) (℃) (µM) (kcal · mol-1) (cal · mol-1 · K-1) (kcal · mol-1) (kcal · mol-1)

[2] = molecular target: T2, mTFF1 (human TFF1, monomeric) (Homo sapiens, UniProt P04155); assay: Isothermal titration calorimetry of glycans against mTFF1; format: binding; conditions: ITC, pH 7.4, 25 °C; TFF1
T2 construct: PelB signal peptide (N, cleaved yes); His6 (C, cleaved yes); made in house; host or cells: E. coli T7 Express, periplasmic extraction
T2 sequence (P04155 with tags, fused parts or gaps): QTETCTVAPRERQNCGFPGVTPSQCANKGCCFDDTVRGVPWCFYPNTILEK
Experimental: as §1, §2, §3, §4, §5

[3] = molecular target: T3, mTFF3 (human TFF3, monomeric) (Homo sapiens, UniProt Q07654, C78S); assay: Isothermal titration calorimetry of glycans against mTFF3; format: binding; conditions: ITC, pH 7.4, 25 °C; TFF3
T3 construct: with an N-terminal PelB signal peptide, no interchain Cys, and a C-terminal His6-tag; PelB signal peptide (N, cleaved yes); His6 (C, cleaved yes); made in house; host or cells: E. coli T7 Express, periplasmic extraction
T3 sequence (Q07654 22-80 C78S): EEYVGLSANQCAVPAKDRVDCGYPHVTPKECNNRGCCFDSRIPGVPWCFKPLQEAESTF
Experimental: as §1, §2, §3, §4, §5

[4] = system: pMucinred (reduced and alkylated pMucin); assay: TFF-mucin ELISA on pMucinred; format: binding, porcine; conditions: immobilised pMucinred, Strep-HRP detection
Experimental: (§6) A 50 mg ml^−1 stock of pMucin was prepared by resuspending porcine gastric mucin type III (Sigma) in PBS + 50 mM EDTA + 0.02% NaN3. This pMucin (1 ml) was dialysed (100 kDa NMWL) against 4 M guanidium hydrochloride (2 × 2.0 l) over 48 h at 4 °C. Precipitate was removed by centrifugation (8000×g, 20 min, 4 °C) and the soluble supernatant dialysed (100 kDa NMWL) against PBS (2 × 2.0 l) over 48 h at 4 °C. Half of this sample was treated with 50 µg ml^−1 CpGH89[29] at 30°C for 16 h. Both mucin samples were reduced with 10 mM DTT (30 min, 50 °C) then alkylated by the addition of 30 mM iodoacetamide (30 min, 50 °C). These samples were dialysed (100 kDa NMWL) against PBS (2 × 2.0 l) over 48 h at 4 °C. The concentration of all three mucin stock solutions were standardised to A280 = 1.5 using PBS. These samples were aliquoted, flash frozen in liquid N2 and stored at −80 °C.
(§7) A solution of pMucin, pMucinred or pMucinred+GH89 (100 µl, 1 µg ml^−1) in 100 mM bicarbonate buffer pH 9.4, was added to each well of a 96-well plate (flat-bottom Nunc MaxiSorp, ThermoFisher) and the plate gently nutated for 2 h at 25 °C. The wells were rinsed four times with 200 µl PBS-T (50 mM NaPi pH 7.4, 150 mM NaCl, 0.2% Tween-20) then blocked for 1 h at 25 °C with blocking buffer (50 mM NaPi pH 7.4, 150 mM NaCl, 5% w/v BSA). The wells were rinsed four times with 200 µl PBS-T then incubated with 100 µl blocking buffer containing TFF (various concentrations) and 1:1000 Strep-HRP (ThermoFisher) for 1 h at 25 °C. The wells were rinsed four times with 200 µl PBS-T then developed by adding 100 µl of TMB-Turbo (ThermoFisher) and incubated for 30 min at 25 °C. The reaction was quenched by the addition of 100 µl of 2 M H2SO4. Absorbance at 450 nm was read within 20 min using an EnVision 2105 Multimode Plate Reader (PerkinElmer). Data was analysed using Prism 8 (GraphPad).

[5] = system: pMucin (porcine gastric mucin); assay: TFF-mucin ELISA on pMucin; format: binding; conditions: immobilised pMucin, Strep-HRP detection
Experimental: as §6, §7

[6] = system: pMucinred+GH89 (pMucinred treated with CpGH89); assay: TFF-mucin ELISA on pMucinred+GH89; format: binding, porcine; conditions: immobilised GH89-treated mucin, Strep-HRP detection
Experimental: as §6, §7

[7] = molecular target: commercially-available porcine gastric mucin (porcine)

## Dimeric TFF1: dimeric wild-type TFF1 construct used in the pMucin agglutination assay ({Avi‑tag(biotin)}-EAQTETCTVAPRERQNCGFPGVTPSQCANKGCCFDDTVRGVPWCFYPNTIDVPPEEECEF; also: homodimer via interchain disulfide, Cys not given here)
pMucin
  lowest concentration inducing dose-dependent increase in light scattering over time: 4 µM

## biotinylated dimeric TFF3 (from UniProt Q07654) D20A
[1]; 25 nM TFF, parent: est. 1.2
  response (Abs. @ 450 nm): 0.04
[1]; 1000 nM TFF, parent: est. 1.2
  response (Abs. @ 450 nm): 0.095

## CC(=O)N[C@H]1[C@@H](OCc2ccccc2)O[C@H](CO)[C@@H](O)[C@@H]1O [benzyl α-D-GlcNAc]
TFF2 (human TFF2)
  affinity by ITC: no detectable affinity
[2]
  affinity by ITC: no detectable affinity
[3]
  affinity by ITC: no detectable affinity

## dTFF3bio-W47A: biotinylated dimeric TFF3 with W47A mutation ({Avi‑tag(biotin)}-EEYVGLSANQCAVPAKDRVDCGYPHVTPKECNNRGCCFDSRIPGVPACFKPLQEAECTF; also: homodimer via interchain disulfide, Cys not given here)
[4]
  binding / affinity to pMucinred by ELISA: completely inactive

## dTFF3bio-D20A: biotinylated dimeric TFF3 with D20A mutation ({Avi‑tag(biotin)}-EEYVGLSANQCAVPAKDRVACGYPHVTPKECNNRGCCFDSRIPGVPWCFKPLQEAECTF; also: homodimer via interchain disulfide, Cys not given here)
[4]
  binding / affinity to pMucinred by ELISA: barely any detectable affinity

## OC[C@H]1O[C@H](O[C@@H]2[C@H](O)[C@@H](O)C(O)O[C@@H]2CO)[C@H](O)[C@@H](O)[C@H]1O (stereo partly drawn) [Gal-α-1,4-Gal]
TFF2 (human TFF2)
  affinity by ITC: failed to show any affinity
[2]
  affinity by ITC: failed to show any affinity
[3]
  affinity by ITC: failed to show any affinity

## mTFF3bio: site-selectively biotinylated monomeric TFF3 ({Avi‑tag(biotin)}-EEYVGLSANQCAVPAKDRVDCGYPHVTPKECNNRGCCFDSRIPGVPWCFKPLQEAECTF; also: one free cysteine, interchain disulfide not formed)
[5]
  binding to pMucin by ELISA: robust binding
[4]
  binding / affinity to pMucinred by ELISA: robust binding
[6]
  binding to pMucinred+GH89 by ELISA: no significant binding

## CC(=O)N[C@H]1[C@@H](Oc2ccc([N+](=O)[O-])cc2)O[C@H](CO)[C@@H](O)[C@@H]1O [4-nitrophenyl α-D-GlcNAc]
TFF2 (human TFF2)
  affinity by ITC: no detectable affinity
[2]
  affinity by ITC: no detectable affinity
[3]
  affinity by ITC: no detectable affinity

## OC[C@H]1O[C@H](O[C@H]2[C@H](O)[C@@H](O)[C@H](O)O[C@@H]2CO)[C@H](O)[C@@H](O)[C@@H]1O [maltose]
TFF2 (human TFF2)
  affinity by ITC: failed to show any affinity
[2]
  affinity by ITC: failed to show any affinity
[3]
  affinity by ITC: failed to show any affinity

## dTFF1bio: biotinylated dimeric TFF1 construct, wild type ({Avi‑tag(biotin)}-EAQTETCTVAPRERQNCGFPGVTPSQCANKGCCFDDTVRGVPWCFYPNTIDVPPEEECEF; also: homodimer via interchain disulfide, Cys not given here)
[6]
  binding to pMucinred+GH89 by ELISA: does not bind

## mTFF1bio: site-selectively biotinylated monomeric TFF1 ({Avi‑tag(biotin)}-EAQTETCTVAPRERQNCGFPGVTPSQCANKGCCFDDTVRGVPWCFYPNTIDVPPEEECEF; also: one free cysteine, interchain disulfide not formed)
[5]
  binding to pMucin by ELISA: robust binding
[4]
  binding / affinity to pMucinred by ELISA: robust binding
[6]
  binding to pMucinred+GH89 by ELISA: no significant binding

## biotinylated dimeric TFF3 (from UniProt Q07654) W47A
[1]; 25 nM TFF, parent: est. 1.2
  response (Abs. @ 450 nm): 0.035
[1]; 1000 nM TFF, parent: est. 1.2
  response (Abs. @ 450 nm): 0.04

## Dimeric TFF3: dimeric wild-type TFF3 construct used in the pMucin agglutination assay ({Avi‑tag(biotin)}-EEYVGLSANQCAVPAKDRVDCGYPHVTPKECNNRGCCFDSRIPGVPWCFKPLQEAECTF; also: homodimer via interchain disulfide, Cys not given here)
pMucin
  lowest concentration inducing dose-dependent increase in light scattering over time: 4 µM

## biotinylated dimeric TFF1 (from UniProt P04155) W41A
[1]; 25 nM TFF, parent: est. 1.3
  response (Abs. @ 450 nm): 0.06
[1]; 1000 nM TFF, parent: est. 1.3
  response (Abs. @ 450 nm): 0.045

## biotinylated dimeric TFF1 (from UniProt P04155) N14A
[1]; 25 nM TFF, parent: est. 1.3
  response (Abs. @ 450 nm): 0.68
[1]; 1000 nM TFF, parent: est. 1.3
  response (Abs. @ 450 nm): 1

## CC(=O)N[C@H]1C(O)O[C@H](CO)[C@@H](O)[C@@H]1O (stereo partly drawn) [D-GlcNAc]
TFF2 (human TFF2)
  affinity by ITC: no detectable affinity
[2]
  affinity by ITC: no detectable affinity
[3]
  affinity by ITC: no detectable affinity

B1: biotinylated dimeric TFF3 (natural protein)
chain: T3 sequence (Q07654 22-80 C78S) with S57C
modifications: also: dimer via interchain disulfide, biotin on Avi-tag (BirA), tag not in chain
[7]
  EC50 of the glycoside hydrolase CpGH89 (0-512 nM, 20 h, 30 °C) for liberating bound dTFF3bio from immobilised pMucin, read by ELISA: 0.4 nM

B2: biotinylated dimeric TFF1 (natural protein)
chain: EAQTETCTVAPRERQNCGFPGVTPSQCANKGCCFDDTVRGVPWCFYPNTIDVPPEEECEF
modifications: also: dimer via interchain disulfide, biotin on Avi-tag (BirA), tag not in chain
[7]
  EC50 of the glycoside hydrolase CpGH89 (0-512 nM, 20 h, 30 °C) for liberating bound dTFF1bio from immobilised pMucin, read by ELISA: 0.8 nM

B3: TFF2bio: biotinylated TFF2, positive control (protein)
chain: T1 sequence (Q03403 24-129 N38Q) with Q15N
modifications: biotin, non-specific (EZ-Link NHS-PEG4-biotin); left off: His10, C-terminal, state not stated
notes: biotinylated TFF2, positive control
[5]
  binding to pMucin by ELISA: robust binding
[4]
  binding / affinity to pMucinred by ELISA: robust binding
[6]
  binding to pMucinred+GH89 by ELISA: no significant binding
